# Article PMC7600788, “Sequence Permutation Generates Peptides with Different Antimicrobial and Antibiofilm Activities” (Pharmaceuticals, 2020)
# No end group written: not given here.
# Tests used:
# S. aureus Mu50 = type: cell-based, Staphylococcus aureus; conditions: Mu50
# Experimental: (§1) The antimicrobial activity spectrum of the WW peptide series was performed on a panel of Gram-positive and -negative bacteria using the standard broth micro-dilution method with minor modifications as described. […] There was a small change in the case of Pseudomonas aeruginosa and Acinetobacter baumannii up to two-fold. Four-fold changes were found for Staphylococcus aureus, Staphylococcus epidermidis, Escherichia coli, and Bacillus subtilis. However, we observed over eight-fold MIC changes for Klebsiella pneumoniae and vancomycin-resistant enterococcus (VRE). […] We also observed more than eight-fold changes in minimal bacterial killing concentrations.
# (§2) The antibacterial activity of peptides was evaluated using a standard broth microdilution protocol with minor modifications as previously described. In brief, logarithmic phase bacterial cultures (i.e., optical density at 600 nm ≈ 0.5) were diluted to OD600~0.001 and partitioned into a 96-well polystyrene microplate at 90 μL per well. After treatment with 10 μL of peptide solutions two-fold diluted to various concentrations, microplates were incubated at 37 °C overnight and read on a ChroMate 4300 Microplate Reader at 630 nm (GMI, Ramsey, MN). […] Minimal bactericidal concentration (MBC) was determined by plating the clear wells at MIC or above. The peptide concentration that caused no bacterial growth on the petri dish is MBC.
# E. faecium VRE = type: cell-based; conditions: VRE
# Experimental: as §1, §2
# S. aureus USA300 = type: cell-based, Staphylococcus aureus; conditions: USA300
# Experimental: as §2
# E. coli ATCC 25922 [1] = type: cell-based, Escherichia coli; conditions: ATCC 25922
# Experimental: To gain additional insight, we also compared the effects of physiological saline and human serum on the antibacterial activities of WW291-WW298 using both E. coli and S. aureus (Table 3). In our assays, salts and serum were present during the entire course of the experiment. […] Thus, WW295 and WW298 stand out in terms of activity robustness (bold in Table 3).
# as §2
# E. coli ATCC 25922 [2] = experiment: Propidium iodide membrane permeation assay; type: cell-based, Escherichia coli; conditions: peptide 3.1 µM, read every 5 min for 2 h
# Experimental: Although not general, cationic antimicrobial peptides frequently target bacterial membranes. A fluorescence-based assay was performed for the determination the membrane active nature of peptides. A rapid increase in the fluorescence was detected as a consequence of peptide treatment at 3.1 µM, indicating membrane damage (Figure 3).
# The experiment was performed as previously described with minor modifications. Serially diluted 10× peptides (10 μL each well) were created in 96-well microtiter plates. Propidium iodide (2 μL) at a fixed concentration of 20 μM was added to each well followed by 88 μL of the S. aureus USA300 or E. coli ATCC 25922 culture (a final OD600 ~0.1 in PBS). The plate was incubated at 37 °C with continuous shaking at 100 rpm in a FLUOstar Omega (BMG LABTECH Inc, Cary, NC, USA) microplate reader. The fluorescence from the plate was read every 5 min for a total duration of 2 h with excitation and emission wavelengths of 584 and 620 nm, respectively. Data were analyzed using the MARS data analysis software provided by the manufacturer and representative plots were made using the GraphPad Prism software (version: 7.0).
# S. aureus USA300 LAC = experiment: Membrane depolarization, DiBAC4(3); type: cell-based, Staphylococcus aureus; conditions: 12.5 µM
# Experimental: Bacteria surfaces are negative and cationic peptides are able to neutralize the negative charge, thereby reducing membrane potential. To test this possibility, we evaluated the peptides against S. aureus USA300 LAC using a fluorescent indicator dye, the DiBAC4(3) (Figure 5).
# The overnight culture of S. aureus USA300 LAC was grown in TSB media to the exponential phase. Cells were then pelleted and washed with PBS twice, and re-suspended in twice the volume of PBS containing 25 mM glucose for 15 min at 37 °C. For membrane depolarization measurements, 250 nM (final concentration) of the dye DiBAC4(3) (bis-(1,3-dibutylbarbituric acid) trimethine oxonol (ANASPEC, Fremont, CA, USA) was added, and vortexed gently. Ninety microliters of the energized bacteria solution were then added in a 96-well microtiter plate (Corning COSTAR). The plate was immediately placed into a FLUOstar Omega (BMG LABTECH Inc., Cary, NC, USA) microplate reader and fluorescence was measured for 20 min. Once the readings are stabilized, 10 μL of peptide solution were added and the fluorescence readings were continued for another 40 min. Measurements were done at an excitation and emission wavelengths of 485 and 520 nm, respectively. Triton X-100 (0.1%) was included as a positive control.
sequence,measurement,setting,value
RKIWWWWL [WW295],"Minimal Inhibitory Concentration (MIC), SA",S. aureus Mu50,12.5 µM
same,"Minimal Inhibitory Concentration (MIC), VRE",E. faecium VRE,6.25 µM
same,"MBC, USA300",S. aureus USA300,12.5 µM
same,"MIC, +150 mM NaCl",E. coli ATCC 25922 [1],6.2 µM
same,"MIC, +10% Human Serum",E. coli ATCC 25922 [1],12.5 µM
same,"MIC, TSB",E. coli ATCC 25922 [1],3.1 µM
same,propidium iodide fluorescence buildup (membrane permeation),E. coli ATCC 25922 [2],steady fluorescence buildup
same,membrane depolarization (DiBAC4(3) fluorescence),S. aureus USA300 LAC,less active in depolarizing the membranes
